Two compounds from patent US6060481A, “Method for improving insulin sensitivity using an adenosine receptor antagonist” (priority 1999, dated 2000) can be followed below.

The target in experiment [1] is T1, human A1 adenosine receptor (Homo sapiens, UniProt P30542).
T1 construct: expressed in transfected cells
T1 sequence (P30542 1-326): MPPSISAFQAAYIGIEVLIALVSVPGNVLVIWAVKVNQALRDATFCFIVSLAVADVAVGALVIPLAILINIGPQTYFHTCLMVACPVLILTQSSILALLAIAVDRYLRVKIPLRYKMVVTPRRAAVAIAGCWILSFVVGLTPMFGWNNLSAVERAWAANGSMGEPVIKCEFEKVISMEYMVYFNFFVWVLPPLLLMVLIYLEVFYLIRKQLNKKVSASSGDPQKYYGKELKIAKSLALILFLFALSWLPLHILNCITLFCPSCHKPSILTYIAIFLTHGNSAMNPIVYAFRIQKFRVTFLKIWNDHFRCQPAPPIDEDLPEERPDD
In words: Binding constants against cloned and expressed human adenosine receptor subtypes (A1). Particulars: read-out: Binding constant (KD) A1.

Experiment [2] relates to protein tyrosine phosphatases in WGA eluates. Particulars: 1 mM in the buffers.
Protocol: The procedure was modified by decreasing the length of autoradiographic exposure to increase sensitivity. ^32 P-poly Glu:Tyr4:1 substrate was incorporated into the 100% SDS polyacrylamide gel prior to polymerization. WGA eluates which were run on the gels were concentrated on Centricon filters to approximately 2 mg/ml. Aliquots (100 μg) were run on the gels. Gels were washed overnight to remove SDS. The proteins were first fully denatured in 6M guanidine HCl and then, after electrophoresis, renatured by incubation in phosphatase assay buffers containing 0.04% Tween® 40 and high concentrations of dithiothreitol (DTT). Next, the gels were dried and exposed to Kodak X-Omat x-ray film at -70° C. for various times. […] In some experiments, concentrated WGA eluates were treated with the antibody anti-PTPase 1B (5 g) prior to assaying phosphatase activity. The antibody was added to 50 μl concentrated eluate and the sample was incubated for 1 h on a tube vortexer at room temperature. Fifty μl of 50% protein A Agarose were centrifuged in a separate tube at 14,000 g for 30 sec. The supernatant was removed, and at the end of 1 h, the WGA eluate was introduced to the agarose precipitate and vortexing was continued for an additional 30 min. As a control, WGA eluates that were not treated with antibody were also introduced to the gels. […]

As usually defined, the Kd is the constant that tells how readily two partners part at equilibrium.

Regarding `CCCn1c(=O)[nH]c(=O)c2[nH]cnc21` [Enprofylline, 3-n-propylxanthine], in experiment [1], the Kd stood at 156 µM.
In the case of sodium vanadate, the “PTPase bands in in-gel assay” value in experiment [2] was “Bands disappeared”.
